According to patent US20090163523A1, “Combinations comprising a s1p receptor agonist and a jak3 kinase inhibitor” (priority 2004, published 2009):
≈ marks a conversion by molar mass, not a printed value.

System: donor heart graft
Assay: Rat heart transplantation, graft survival
Type: in vivo
Conditions: 672 h; rat heart transplant; blood concentration; read-out: EC50 (drug concentration in blood at which 50% of the animals maintain their graft for >28 days)
Method: The aorta is ligated and divided distal to the first branch and the brachiocephalic trunk is divided at the first bifurcation. The left pulmonary artery is ligated and divided and the right side divided but left open. All other vessels are dissected free, ligated and divided and the donor heart is removed into iced saline.
The recipient is prepared by dissection and cross-clamping of the infra-renal abdominal aorta and vena cava. The graft is implanted with end-to-side anastomoses, using 10/0 monofilament suture, between the donor brachiocephalic trunk and the recipient aorta and the donor right pulmonary artery to the recipient vena cava. The clamps are removed, the graft tethered retroabdominally, the abdominal contents washed with warm saline and the animal is closed and allowed to recover under a heating lamp. Graft survival is monitored by daily palpation of the beating donor heart through the abdominal wall. Rejection is considered to be complete when heart beat stops.

C[C@@H]1CCN(C(=O)CC#N)C[C@@H]1N(C)c1ncnc2[nH]ccc12 [CP-690,550 mono-citrate, 3-{(3R,4R)-4-methyl-3-[methyl-(7H-pyrrolo[2,3-d]pyrimidin-4-yl)-amino]-piperidin-1-yl}-3-oxo-propionitrile]
EC50: 0.06 µg/mL (≈ 0.192 µM)
